Source: publication PMC2409587 (British Journal of Cancer, 2004)
Like-named read-outs stand apart in the source and are kept apart here.

Assays:
[1] = Plasma and tissue levels in mice after a single intragastric dose; format: in vivo, mouse; conditions: for peak concentration / AUC: mice, 240 mg/kg i.g.; for AUC: 0-120 min
Procedure: Animal experiments were conducted as stipulated by Project Licence 40/2496 granted by the UK Home Office. Experiments were vetted and approved by the Leicester University Animal Welfare Committee and complied with the UKCCCR guidelines for the welfare of animals in experimental neoplasia. […] The vehicle was glycerol formal, and the dose volume approximately 10 ml kg^−1. In the case of DMU 212, the vehicle also contained 10% DMSO. Mice were killed by terminal gaseous anaesthesia at 10, 30, 60 or 120 min postdosing. Blood was collected by cardiac puncture, and plasma was obtained by centrifugation. The liver, kidney, lung, heart, brain and gut were excised, and scrapings were obtained from small intestine and colon. Tissues were snap-frozen (liquid nitrogen) and stored at −80°C until analysis.
Tissues were homogenised (1 : 1 volume to tissue mass ratio) in 50 mM Hepes buffer (Sigma, Poole, UK) using a hand-held glass homogeniser. An aliquot (250 μl) of homogenate, to which an internal standard had been added was vortexed, followed by the addition of acetonitrile (1 ml). After vigorous shaking, mixtures were kept on ice (5–10 min) and centrifuged (2800 g, 10 min, 4°C). The supernatants were dried under a stream of nitrogen and reconstituted in mobile phase (100 μl).
(§1) HPLC analysis was performed using a Varian Prostar HPLC system (Varian, UK) with a Pro-Star 230 solvent delivery system, a Pro-Star 310 UV–Vis detector, a Pro-Star 363 Fluorescence detector, a 410 Varian autosampler and an Ultracarb C18 column (4.6 mm × 250 mm, 5 μm, Phenomenex, UK). The mobile phase consisted of the three components: aqueous ammonium acetate (pH 6.5, 50 mM), propan-2-ol and acetonitrile. […] The flow rate for both methods was 1 ml min^−1.
(§2) The injection volume of samples reconstituted in the mobile phase was 50 μl.
The curves were characterised by regression coefficients of R^2=0.99 or above. […] Therefore, metabolites were not quantitated.
The area under the plasma or tissue concentration vs time curve (AUC) values were calculated using the trapezoidal rule (WinNonlin v.1.1, Scientific Consultants, USA).

HT-29 colon cancer cells = test: Effect of agents on growth of HT-29 cells; format: cell-based; conditions: Homo sapiens, read-out: IC50 (cell growth)
Procedure: (§3) Cells were seeded (10^4 per well) in 24-well plates and cultured in DMEM containing Glutamax I (Life Technologies, Paisley, UK) and glucose (4.5 g l^−1) and 10% foetal calf serum (Gibco, Paisley, UK). […] Cells were counted 72, 96, 120, 144 and 168 h postaddition of agents using a Z2 Coulter Particle Count and Size Analyzer (Beckman Coulter, High Wycombe, UK). Control cultures contained the vehicle only. […] The IC50 values inserted in Figure 5 were calculated from the linear portion of the cell number-vs agent concentration curves at the 168 h time point.

[2] = test system: HCA-7 and HT-29 colon cancer cells; test: Effect of agents on growth of colon cancer cells, range stated over both lines; format: cell-based; conditions: Homo sapiens, 168 h, read-out: IC50 values (cell growth), range over both agents and both cell lines
Procedure: as §3

[3] = Incubation with mouse liver microsomes; format: in vitro ADME; conditions: mouse liver microsomes 0.5 mg protein ml^−1, NADPH 1 mM, substrate 1 mM, 20 min, 37°C
Procedure: Microsomes were prepared by differential centrifugation of mouse liver homogenate first at 9 × 10^3 g (20 min, 4°C), then at 10^5 g (1 h) in a Beckman L-8-60 ultracentrifuge (Beckman Coulter UK Ltd, High Wycombe, Buckinghamshire, UK). The microsomal pellet was suspended in Tris buffer (50 mM, pH 7.4), recentrifuged at 10^5 g (1 h) and resuspended in Tris buffer. Liver microsomes from two to four mice were pooled. […] The addition of one volume of ice-cold methanol terminated the reaction. The mixture was vortexed (30 s), centrifuged (3 min, 13 400 g) and the supernatant was collected and analysed by HPLC.
as §1, §2

[4] = format: in vivo, mouse; conditions: agents at 0.2% in the diet for 2 weeks; result not shown
Procedure: ). Both agents were rapidly cleared from blood and tissues within an hour of administration (Figure 3). […] DMU 212 levels reached a peak after 10 min, except in the case of the colon, in which the peak occurred after 30 min. The peak levels for DMU 212 were 5 μM in the plasma and 8, 11, 11, 5, 10, 7600 and 330 nmols g^−1 tissue in the liver, kidney, lung, brain, heart, small intestinal and colonic mucosae, respectively. We performed a preliminary experiment in order to explore whether the difference in gastrointestinal levels would also be observed when the agents are administered with the diet, the route often used in preclinical cancer chemoprevention studies. Agents were admixed with the diet at 0.2% and fed for 2 weeks.

HCA-7 colon cancer cells = test: Effect of agents on growth of HCA-7 cells; format: cell-based; conditions: Homo sapiens, 168 h time point, cell counts
Procedure: as §3

[5] = Metabolite characterisation in plasma and tissues of dosed mice; format: in vivo, mouse; conditions: 240 mg/kg i.g., HPLC cochromatography and mass spectrometry
Procedure: The vehicle was glycerol formal, and the dose volume approximately 10 ml kg^−1. […] Mice were killed by terminal gaseous anaesthesia at 10, 30, 60 or 120 min postdosing. Blood was collected by cardiac puncture, and plasma was obtained by centrifugation. The liver, kidney, lung, heart, brain and gut were excised, and scrapings were obtained from small intestine and colon. Tissues were snap-frozen (liquid nitrogen) and stored at −80°C until analysis.
Tissues were homogenised (1 : 1 volume to tissue mass ratio) in 50 mM Hepes buffer (Sigma, Poole, UK) using a hand-held glass homogeniser. […] After vigorous shaking, mixtures were kept on ice (5–10 min) and centrifuged (2800 g, 10 min, 4°C). The supernatants were dried under a stream of nitrogen and reconstituted in mobile phase (100 μl).
HPLC analysis was performed using a Varian Prostar HPLC system (Varian, UK) with a Pro-Star 230 solvent delivery system, a Pro-Star 310 UV–Vis detector, a Pro-Star 363 Fluorescence detector, a 410 Varian autosampler and an Ultracarb C18 column (4.6 mm × 250 mm, 5 μm, Phenomenex, UK). […]
Mass spectrometry was performed using a Quattro Bio-Q tandem quadrupole mass spectrometer upgraded to Quattro MK II specifications (Micromass, Manchester, UK) with a pneumatically assisted electrospray interface. Samples were analysed in positive ion mode.

[6] = test system: transformed human lung-derived cells; design: method as in Lu et al, 2001; conditions: ref Lu et al, 2001; cited from earlier work
[7] = rats, ref Verschoyle et al, unpublished, cited from earlier work
[8] = plasma and tissues (for DMU 212 except colon), 10 min was the first time point

| SMILES | peak concentration ([1]; brain) [nmols g^−1 tissue] | AUC ([1]; brain) | peak concentration ([1]; colonic mucosa) [nmols g^−1 tissue] | AUC ([1]; colonic mucosa) | peak concentration ([1]; heart) [nmols g^−1 tissue] | AUC ([1]; heart) | AUC ([1]; intestinal mucosa) | peak concentration ([1]; kidney) [nmols g^−1 tissue] | AUC ([1]; kidney) | peak concentration ([1]; liver) [nmols g^−1 tissue] | AUC ([1]; liver) | peak concentration ([1]; lung) [nmols g^−1 tissue] | AUC ([1]; lung) | time at which levels peaked [1, 8] [min] | peak concentration ([1]; plasma) [µM] | AUC ([1]; plasma) | peak concentration ([1]; small intestinal mucosa) [nmols g^−1 tissue] | microsomal biotransformation (HPLC peaks besides parent) [3] | other results |
| --- | --- | --- | --- | --- | --- | --- | --- | --- | --- | --- | --- | --- | --- | --- | --- | --- | --- | --- | --- |
| Oc1ccc(/C=C/c2cc(O)cc(O)c2)cc1 [resveratrol, trans-3,5,4′-trihydroxystilbene, reference compound] | 1.2 | 103 nmoles ml^−1 or g^−1 min | 30 | 2869 nmoles ml^−1 or g^−1 min | 75 | 2072 nmoles ml^−1 or g^−1 min | 36 690 nmoles ml^−1 or g^−1 min | 16 | 785 nmoles ml^−1 or g^−1 min | 51 | 2150 nmoles ml^−1 or g^−1 min | 50 | 1123 nmoles ml^−1 or g^−1 min | 10 | 32 | 863 nmoles ml^−1 or g^−1 min | 960 | did not yield any peak in addition to that of the parent substrate | IC50 (HT-29 colon cancer cells; HT-29 cells, 168 h time point, cell counts): 19.9 ± 0.3 µM; IC50 ([2]; HCA-7 and HT-29 cells): 6 to 26 µM |
| COc1ccc(C=Cc2cc(OC)c(OC)c(OC)c2)cc1 [DMU 212, 3,4,5,4′-tetramethoxystilbene] | 5 | 193 nmoles ml^−1 or g^−1 min | 330 | 19 256 nmoles ml^−1 or g^−1 min | 10 | 750 nmoles ml^−1 or g^−1 min | 369 315 nmoles ml^−1 or g^−1 min | 11 | 566 nmoles ml^−1 or g^−1 min | 8 | 432 nmoles ml^−1 or g^−1 min | 11 | 778 nmoles ml^−1 or g^−1 min | 10 | 5 | 246 nmoles ml^−1 or g^−1 min | 7600 | afforded peaks in addition to that of parent DMU 212 | time at which levels peaked ([1]; colon): 30 min; factor by which peak level exceeded the concentration arresting transformed lung cell growth (10 μM) ([1]; small intestinal mucosa): 760; colonic levels of DMU 212 relative to those of resveratrol [4]: two-fold; IC50 (HT-29 colon cancer cells; HT-29, 168 h): 11.3 ± 1.1 µM; IC50 (HCA-7 colon cancer cells): 6 ± 0.2 µM; IC50 [2]: 6 to 26 µM; metabolism in mice in vivo [5]: underwent metabolic hydroxylation or single and double O-demethylation; concentration required to cause significant arrest of transformed lung cell growth in vitro [6]: 10 µM; toxicity ([7]; single doses of up to 40 mg kg^−1 i.v.): devoid of any toxicity; toxicity ([7]; single doses of up to 400 mg kg^−1 p.o.): devoid of any toxicity |
